According to patent US20160310467A1, “ONDANSETRONE TO REVERSAL OF THE SOFT TISSUE ANESTHESIA” (priority 2015, published 2016):

Assays:
[1] = spinal anesthesia with bupivacaine; cited from earlier work
[2] = reversal of the local anesthesia effect by applying ondansetrone to the same soft tissue area; format: in vivo; details: ondansetrone applied to the same area where local anesthesia is applied; dose according to patient and to type and dosage of local anesthetic
Description: Invention is about the reversal of the effect of the local anesthetic applied to the soft tissue, in a short time period by applying ondansetrone, which is a 5-hydroxytriptamine (5-HT3) antagonist, to the same area. And it is also about the removal of the problems encountered by local anesthesia.
Anesthesia implementations can be classified as local anesthesia, regional anesthesia and general anesthesia. Local anesthesia is the temporarily blockage of carrying the painful stimulations by nerve tracks. Only the surgery area is anesthetized with the local anesthesia. […] Local anesthesia effect can last from as few hours up to five hours. During that period, the problems that patient has to face because of being effected by local anesthesia are described in detail in the prior art section. The solution of these problems is reversal of the effect of the local anesthesia by the doctor in a short time after finishing the operation. Because of the effects of the local anesthetics can take hours to be removed by their selves. In the studies of mine about reversal of that local anesthesia effect, ondansetrone, which is a 5-hidroksitriptamin (5-HT3) antagonist, is implemented to the same area according to patient's situation (age, weight, sensitivity etc.) and to type and dosage of local anesthetic were local anesthesia is applied. […]

[3] = cited from earlier work

Row | SMILES | reversal of the sensorial block [1] | reversal of the effect of the local anesthetic [2] | regression of the sensorial block level ([3]; subarachnoid anesthesia by lidocaine) | effect on sensorial block level ([3]; subarachnoid anesthesia by ropivacaine)
1 | CN1C2CCCC1CC(NC(=O)c1nn(C)c3ccccc13)C2 (stereo not shown) [granisetron] | accelerates the reversal of the sensorial block |  |  | 
2 | Cc1nccn1CC1CCc2c(c3ccccc3n2C)C1=O (stereo not shown) [ondansetrone] |  | antagonizes the effect of the local anesthetic in a short time (a few minutes) | accelerates the regression of the sensorial block level | no effect in sensorial block level
